The record followed here is article PMC7967551 (2021).

Each structure is given as a SMILES string.

Experiment [1] deals with Tel23 (DNA, G4) TAGGGTTAGGGTTAGGGTTAGGG
As to the kind of experiment: UV melting at 295 nm. The note with it: K+ 100 mM (KCl), Li+, LiCac 2.5 mM, pH 7.0, 5.51 µM G4, no stabilizing effect.

Experiment [2] shares this test system. Briefly: absorbance titration. The note with it: K+ (KCl 0.1 M stated for G4 melting), Li+; LiCac 2.5 mM, pH 7.0; no signal change; highest concentration not stated.

As for `c1cc[n+]2c(c1)-c1cccc[n+]1CC2`, the binding result in experiment [1] (5.47 µM compound) and in experiment [2] was “no” in each case.
Consider `C[n+]1ccc(-c2cc[n+](C)cc2)cc1`, for which the binding entry in experiment [1] (6.01 µM compound) and in experiment [2] was “no” throughout.
